Experimental data: PMC6979384, “Characterization of the plant homeodomain (PHD) reader family for their histone tail interactions” (Epigenetics & Chromatin, 2020)

Assays:
Experiment in all cases: Histone peptide microarray
Assay type in all cases: binding, human
[1] = tested on: KDM5A (1); settings: GST-tagged KDM5A (1); sheet Array Heatmap; each array performed twice, total n = 4
Summary of the method: (§1)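 Purified PHD finger domains fused to GST are screened against 293 synthetic histone peptides bearing one or several post-translational modifications. The protein is used at 0.5 μM, and the signal from four replicate arrays is averaged, with standard deviation given.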

[2] = tested on: PHF21A; settings: GST-tagged PHF21A; sheet Array Heatmap; each array performed twice, total n = 4
Summary of the method: as §1

[3] = tested on: MLL5; settings: GST-tagged MLL5; sheet Array Heatmap; each array performed twice, total n = 4
Summary of the method: as §1

[4] = tested on: KDM4C (TTP); settings: GST-tagged KDM4C (TTP = Tandem Tudor domain + PHD); sheet Array Heatmap; each array performed twice, total n = 4
Summary of the method: as §1

[5] = tested on: ING5; settings: GST-tagged ING5; sheet Array Heatmap; each array performed twice, total n = 4
Summary of the method: as §1

[6] = tested on: PHRF1 (RP); settings: GST-tagged PHRF1 (RP); sheet Array Heatmap; each array performed twice, total n = 4
Summary of the method: as §1

[7] = tested on: KDM5B (3); settings: GST-tagged KDM5B (3); sheet Array Heatmap; each array performed twice, total n = 4
Summary of the method: as §1

[8] = tested on: ING1; settings: GST-tagged ING1; sheet Array Heatmap; each array performed twice, total n = 4
Summary of the method: as §1

[9] = tested on: BAZ2B; settings: GST-tagged BAZ2B; sheet Array Heatmap; each array performed twice, total n = 4
Summary of the method: as §1

[10] = tested on: ING4; settings: GST-tagged ING4; sheet Array Heatmap; each array performed twice, total n = 4
Summary of the method: as §1

[11] = tested on: CHD5 (PCC); settings: GST-tagged CHD5 (PCC = PHD + Dual Chromodomain); sheet Array Heatmap; each array performed twice, total n = 4
Summary of the method: as §1

[12] = tested on: AIRE (PP); settings: GST-tagged AIRE (PP); sheet Array Heatmap; each array performed twice, total n = 4
Summary of the method: as §1

[13] = tested on: TRIM66 (PB); settings: GST-tagged TRIM66 (PB = PHD + Bromodomain); sheet Array Heatmap; each array performed twice, total n = 4
Summary of the method: as §1

[14] = tested on: DIDO1; settings: GST-tagged DIDO1; sheet Array Heatmap; each array performed twice, total n = 4
Summary of the method: as §1

[15] = tested on: KDM5B (1); settings: GST-tagged KDM5B (1); sheet Array Heatmap; each array performed twice, total n = 4
Summary of the method: as §1

[16] = tested on: SP140L; settings: GST-tagged SP140L; sheet Array Heatmap; each array performed twice, total n = 4
Summary of the method: as §1

[17] = tested on: KDM7A; settings: GST-tagged KDM7A; sheet Array Heatmap; each array performed twice, total n = 4
Summary of the method: as §1

[18] = tested on: MORC3 (CW); settings: GST-tagged MORC3 (CW = CW-type Zn-finger); sheet Array Heatmap; each array performed twice, total n = 4
Summary of the method: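 GST-PHD reader, 0.5 μM, probed on 293-peptide histone array (single/combinatorial PTMs); optimized array protocol; signal = mean ± SD, n = 4.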

[19] = tested on: PHF2; settings: GST-tagged PHF2; sheet Array Heatmap; each array performed twice, total n = 4
Summary of the method: as §1

[20] = tested on: PHF23; settings: GST-tagged PHF23; sheet Array Heatmap; each array performed twice, total n = 4
Summary of the method: as §1

[21] = tested on: TAF3; settings: GST-tagged TAF3; sheet Array Heatmap; each array performed twice, total n = 4
Summary of the method: as §1

[22] = tested on: ING3; settings: GST-tagged ING3; sheet Array Heatmap; each array performed twice, total n = 4
Summary of the method: as §1

[23] = tested on: ING2; settings: GST-tagged ING2; sheet Array Heatmap; each array performed twice, total n = 4
Summary of the method: as §1

[24] = tested on: BPTF (PB); settings: GST-tagged BPTF (PB = PHD + Bromodomain); sheet Array Heatmap; each array performed twice, total n = 4
Summary of the method: as §1

[25] = tested on: CHD4 (PPCC); settings: GST-tagged CHD4 (PPCC = Dual PHD + Dual Chromodomain); sheet Array Heatmap; each array performed twice, total n = 4
Summary of the method: as §1

[26] = tested on: CHD5 (PPCC); settings: GST-tagged CHD5 (PPCC = Dual PHD + Dual Chromodomain); sheet Array Heatmap; each array performed twice, total n = 4
Summary of the method: as §1

[27] = tested on: PHF13; settings: GST-tagged PHF13; sheet Array Heatmap; each array performed twice, total n = 4
Summary of the method: as §1

[28] = tested on: RAG2; settings: GST-tagged RAG2; sheet Array Heatmap; each array performed twice, total n = 4
Summary of the method: as §1

[29] = tested on: PHF8; settings: GST-tagged PHF8; sheet Array Heatmap; each array performed twice, total n = 4
Summary of the method: as §1

[30] = tested on: DPF2 (PPC2W2); settings: GST-tagged DPF2 (PPC2W2 = Dual PHD + C2W2-type Zn-finger); sheet Array Heatmap; each array performed twice, total n = 4
Summary of the method: as §1

[31] = tested on: KDM5A (3); settings: GST-tagged KDM5A (3); sheet Array Heatmap; each array performed twice, total n = 4
Summary of the method: as §1

Row | Substance | Array Heatmap signal (histone peptide microarray) [1] | Array Heatmap signal (histone peptide microarray) [2] | Array Heatmap signal (histone peptide microarray) [3] | Array Heatmap signal (histone peptide microarray) [4] | Array Heatmap signal (histone peptide microarray) [5] | Array Heatmap signal (histone peptide microarray) [6] | Array Heatmap signal (histone peptide microarray) [7] | Array Heatmap signal (histone peptide microarray) [8] | Array Heatmap signal (histone peptide microarray) [9] | Array Heatmap signal (histone peptide microarray) [10] | Array Heatmap signal (histone peptide microarray) [11] | Array Heatmap signal (histone peptide microarray) [12] | Array Heatmap signal (histone peptide microarray) [13] | Array Heatmap signal (histone peptide microarray) [14] | Array Heatmap signal (histone peptide microarray) [15] | Array Heatmap signal (histone peptide microarray) [16] | Array Heatmap signal (histone peptide microarray) [17] | Array Heatmap signal (histone peptide microarray) [18] | Array Heatmap signal (histone peptide microarray) [19] | Array Heatmap signal (histone peptide microarray) [20] | also measured
1 | H3K4ac + K9ac + S10p + K14ac + K18ac: H3 1-20 | 0.5046 | 0.4919 | 0.555 | 0.5421 | 0.3888 | 0.429 | 0.4819 | 0.5313 | 0.5889 | 0.4935 | 0.8446 | 0.5295 | 0.6786 | 0.6753 | 0.6478 | 0.3597 | 0.4698 | 0.3767 | 0.4731 | 0.5331 | Array Heatmap signal (histone peptide microarray) [21]: 0.2701; Array Heatmap signal (histone peptide microarray) [22]: 0.4823; Array Heatmap signal (histone peptide microarray) [23]: 0.5779; Array Heatmap signal (histone peptide microarray) [24]: 0.3689; Array Heatmap signal (histone peptide microarray) [25]: 0.5822; Array Heatmap signal (histone peptide microarray) [26]: 0.5941; Array Heatmap signal (histone peptide microarray) [27]: 0.6482; Array Heatmap signal (histone peptide microarray) [28]: 0.2541; Array Heatmap signal (histone peptide microarray) [29]: 0.3899; Array Heatmap signal (histone peptide microarray) [30]: 0.6938; Array Heatmap signal (histone peptide microarray) [31]: 0.4188
2 | H3K4ac + K9ac: H3 1-20 | 0.4969 | 0.4614 | 0.5339 | 0.5223 | 0.3535 | 0.6615 | 0.6207 | 0.5202 | 0.5296 | 0.4565 | 0.8893 | 0.5254 | 0.6641 | 0.6345 | 0.6807 | 0.3499 | 0.4244 | 0.3754 | 0.54 | 0.5225 | Array Heatmap signal (histone peptide microarray) [21]: 0.3083; Array Heatmap signal (histone peptide microarray) [22]: 0.4596; Array Heatmap signal (histone peptide microarray) [23]: 0.6174; Array Heatmap signal (histone peptide microarray) [24]: 0.3822; Array Heatmap signal (histone peptide microarray) [25]: 0.558; Array Heatmap signal (histone peptide microarray) [26]: 0.5625; Array Heatmap signal (histone peptide microarray) [27]: 0.5976; Array Heatmap signal (histone peptide microarray) [28]: 0.2758; Array Heatmap signal (histone peptide microarray) [29]: 0.3733; Array Heatmap signal (histone peptide microarray) [30]: 0.6975; Array Heatmap signal (histone peptide microarray) [31]: 0.5679
